Assay results as given in patent US7531506B2, “Process for producing trunkamide a compounds” (Pharma Mar, S.A., priority 2001, dated 2009).
*1 amine or outer side, *2 acyl side, *3 side chain or, on linkers, in order; H or OH if unused. Where a SMILES comes first, the peptide text is derived from it. [ ]: non-standard residue; d: D form. The star is where a group is joined. X1 = O=C([C@@H]1CSC([C@@H](Cc2ccccc2)N[*:1])=N1)[*:2]; X2 = C=CC(C)(C)O[C@H](C)C(N[*:1])C(=O)[*:2]; Allyl(1,1-Me2) = C=CC(C)(C)*

Columns and labels:
Format in all cases: cell-based
[1] = test system: P388 murine lymphoma; assay: Cytotoxicity, P388 cells; details: read-out: Cytoxicity IC50 P388
From the text: (§1) Cytoxicity of trunkamide A and derivatives IC50 (molar).
(§2) Methodology: after Berjeron et al, Biochem and Bioph Res. Comm., 1984, 121, 3,848854 388=Murine lymphoma. A549=lung carcinoma. . HT-29=human colon carcinoma MEL-28=human melanoma. DU145=human prostate carcinoma.

[2] = test system: A549 human lung carcinoma; assay: Cytotoxicity, A549 cells; details: read-out: Cytoxicity IC50 A549
From the text: as §1, §2

[3] = test system: HT-29 human colon carcinoma; assay: Cytotoxicity, HT29 cells; details: HT-29 human colon carcinoma cells; read-out: Cytoxicity IC50 HT29
From the text: as §1, §2

[4] = test system: MEL-28 human melanoma; assay: Cytotoxicity, MEL28 cells; details: MEL-28 human melanoma cells; read-out: Cytoxicity IC50 MEL28
From the text: as §1, §2

[5] = test system: DU145 human prostate carcinoma; assay: Cytotoxicity, DU145 cells; details: read-out: Cytoxicity IC50 DU145
From the text: as §1, §2

| Compound | IC50 [1] [nM] | IC50 [2] [nM] | IC50 [3] [nM] | IC50 [4] [nM] | IC50 [5] [nM] |
| --- | --- | --- | --- | --- | --- |
| C=CC(C)(C)OC[C@@H]1NC(=O)C([C@@H](C)OC(C)(C)C=C)NC(=O)[C@@H]2CSC(=N2)[C@@H](Cc2ccccc2)NC(=O)[C@@H]2CCCN2C(=O)[C@H](C)NC(=O)[C@H]([C@@H](C)CC)NC1=O (stereo partly drawn) [Compound 9, Cyclo[D-Phe-Tzn-Thr(rPr)-Ser(rPr)-Ile-Ala-Pro]] (cyclo(AP[X1][X2]S(Allyl(1,1-Me2))I)) | 1200 | 1200 | 1200 | 12000 | 1200 |
| Cyclo [Compound 11, Cyclo [L-Phe-Tzn-Thr (tBu)-Ser(tBu)-Ile-Ala-Pro]] | > 6200 | > 6200 | > 6200 | > 6200 | > 6200 |
| Cyclo [Compound 12, Cyclo [L-Phe-Oxa-Thr(tBu)-Ser(tBu)-Ile-Ala-Pro]] | 3100 | 3100 | 3100 | > 6100 | > 6100 |
| Cyclo [Compound 10, Cyclo [L-Phe-Tzn-Thr(rPr)-Ser(rPr)-Ile-Ala-Pro]] | 1200 | 1200 | 1200 | 1200 | 1200 |
